Test systems include SK-MEL-5 melanoma; SF-295 CNS; OVCAR-5 ovarian; TK-10 renal; NCI-H522 lung; KM12 colon; M14 melanoma; SF-539 CNS; A549 NSCLC; SNB-19 CNS.
What all share (assay): inhibition of tumour cell growth, NCI panel, 48 h

Several values for one entry are separate records, joined by “and”; a condition that tells them apart may be missing. Identical values can stand only once.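 Growth conditions: 96-well plates. Treatment: test compound, 48 hours, 5 concentrations. Analysis: linear interpolation between bracketing concentrations; unreached endpoints set to highest concentration. The concentration for 50% growth inhibition is given as GI50. At the TGI there is no net growth.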 Where only a bound is given, the exact number is not on record here.

As for `CCOc1ccccc1C=C1c2ccccc2C(=O)c2ccccc21`, the TGI with SK-MEL-5 melanoma was 20.8 µM; with SF-295 CNS it was > 100 µM; in the assay on OVCAR-5 ovarian, > 100 µM; with TK-10 renal, 45.6 µM; in the assay with NCI-H522 lung it was 6.57 µM; with KM12 colon it was > 100 µM. The TGI in the assay on M14 melanoma was 64.5 µM; in the assay on SF-539 CNS, 5.22 µM; in the assay with A549 NSCLC, > 100 µM; in the assay on SNB-19 CNS, > 100 µM.
For the molecule `COc1ccc(/C=C(/C(=O)N2CCN(c3ccccc3)CC2)c2cc(OC)c(OC)c(OC)c2)cc1O`, the GI50 in the assay on SK-MEL-5 melanoma is 0.361 µM; with SF-295 CNS, 0.808 µM; in the assay with OVCAR-5 ovarian it was 0.678 µM; in the assay on TK-10 renal it was 23.4 µM; with NCI-H522 lung, 0.128 µM; in the assay with KM12 colon, 0.414 µM. Besides, the GI50 with M14 melanoma is 0.315 µM; with SF-539 CNS, 0.205 µM; in the assay on A549 NSCLC it was 0.764 µM; with SNB-19 CNS, 0.481 µM. Also, the TGI with SK-MEL-5 melanoma is 11.8 µM; in the assay on SF-295 CNS, > 100 µM; in the assay with OVCAR-5 ovarian it was > 100 µM; in the assay with TK-10 renal, > 100 µM; in the assay with NCI-H522 lung it was 0.594 µM; in the assay with KM12 colon, > 100 µM. Moreover, the TGI was 24 µM in the assay with M14 melanoma, 0.708 µM in the assay on SF-539 CNS, > 100 µM in the assay with A549 NSCLC and > 100 µM in the assay on SNB-19 CNS.
`CC1=C(C(=O)Nc2ccccc2)C(c2ccccc2)C(C(=O)Nc2ccccc2)=C(C)N1`: the TGI with SK-MEL-5 melanoma, with SF-295 CNS, in the assay on OVCAR-5 ovarian, in the assay with TK-10 renal, with NCI-H522 lung and with KM12 colon was > 100 µM in each case. The TGI in the assay with M14 melanoma, with SF-539 CNS, in the assay on A549 NSCLC and in the assay with SNB-19 CNS was > 100 µM in each case.
In the case of `O=C1c2cccc(NCCCNCCO)c2C(=O)c2cccc(NCCCNCCO)c21`, the TGI with SK-MEL-5 melanoma is 3.31 µM and 4.4 µM; in the assay on SF-295 CNS, 18.6 µM and 7.37 µM; with OVCAR-5 ovarian, 6.28 µM and 6.41 µM; in the assay on TK-10 renal it was 8.6 µM and 13.4 µM; in the assay with NCI-H522 lung, 1.6 µM; with KM12 colon, 4.43 µM and 5.84 µM. For the same molecule, the TGI in the assay on M14 melanoma is 4.3 µM and 8.78 µM; in the assay on SF-539 CNS, 4.13 µM and 2.84 µM; in the assay with A549 NSCLC it was 7.34 µM and 4.62 µM; in the assay with SNB-19 CNS it was 5.58 µM. Moreover, the GI50 in the assay on SF-295 CNS was 6.32 µM and 2.35 µM.
On to `O=C(CNc1ccc(Cl)cc1)Nc1ccc(-c2nc3ccccc3s2)cc1`, for which the GI50 with SK-MEL-5 melanoma is 2 µM; with SF-295 CNS, 14.1 µM; with OVCAR-5 ovarian, 5.97 µM; with TK-10 renal it was 5.98 µM; in the assay with NCI-H522 lung, 1.53 µM; in the assay with KM12 colon, 5.39 µM. In addition, the GI50 is 2.1 µM in the assay with M14 melanoma, 4.93 µM in the assay with SF-539 CNS, 8.1 µM with A549 NSCLC and 6.03 µM with SNB-19 CNS. In addition, the TGI came to 5.42 µM with SK-MEL-5 melanoma; 28.8 µM with SF-295 CNS; 13.3 µM in the assay on OVCAR-5 ovarian; 13.7 µM with TK-10 renal; 3.67 µM with NCI-H522 lung; 16.5 µM in the assay with KM12 colon. The TGI in the assay on M14 melanoma is 5.15 µM; in the assay with SF-539 CNS, 9.79 µM; in the assay with A549 NSCLC it was 27.4 µM; in the assay with SNB-19 CNS, 16.6 µM.
As for `O=C1NC(=O)C(c2cnc3ccccn23)=C1c1cn2c3c(cc(F)cc13)CN(C(=O)N1CCCCC1)CC2`, the GI50 was 2.81 µM with SK-MEL-5 melanoma; 0.142 µM in the assay with SF-295 CNS; 23.5 µM in the assay on OVCAR-5 ovarian; 0.0416 µM in the assay on TK-10 renal; 13.9 µM with NCI-H522 lung; 10.6 µM with KM12 colon. Moreover, the GI50 was 13.7 µM in the assay on M14 melanoma, 2.74 µM with SF-539 CNS, 7.85 µM in the assay on A549 NSCLC and 22.8 µM with SNB-19 CNS. For the same molecule, the TGI came to 16.8 µM in the assay with SK-MEL-5 melanoma; 33.9 µM in the assay on SF-295 CNS; 64.4 µM in the assay with OVCAR-5 ovarian; 23.8 µM in the assay on TK-10 renal; 40.1 µM in the assay on NCI-H522 lung; 25.4 µM with KM12 colon. The TGI in the assay with M14 melanoma was 36.6 µM; in the assay with SF-539 CNS it was 24.4 µM; in the assay with A549 NSCLC, 71.5 µM; with SNB-19 CNS, > 87.5 µM.
Take `O=C(CCn1[nH]c(=O)c(Cl)c(Cl)c1=O)NO`: the TGI in the assay with SK-MEL-5 melanoma, with SF-295 CNS, with OVCAR-5 ovarian, in the assay with TK-10 renal, with NCI-H522 lung and with KM12 colon was > 100 µM in each case. For the same molecule, the TGI in the assay on M14 melanoma, in the assay with SF-539 CNS, in the assay on A549 NSCLC and in the assay on SNB-19 CNS was > 100 µM throughout.
For the molecule `CCOC(=O)CCCn1c(SC)nc2[nH]cc(-c3ccccc3)c2c1=O`, the GI50 in the assay with SK-MEL-5 melanoma is 12.9 µM; with SF-295 CNS, 11.6 µM; in the assay with OVCAR-5 ovarian, 37.5 µM; in the assay on TK-10 renal, 46.1 µM; with NCI-H522 lung, 15 µM; in the assay with KM12 colon, 16.8 µM. Besides, the GI50 with M14 melanoma is 15.4 µM; in the assay with SF-539 CNS, 18.4 µM; in the assay on A549 NSCLC, 12.2 µM; in the assay on SNB-19 CNS, 21 µM. Besides, the TGI in the assay with SK-MEL-5 melanoma is 25.7 µM; with SF-295 CNS, 34.2 µM; in the assay with OVCAR-5 ovarian, 97.1 µM; in the assay with TK-10 renal it was > 100 µM; with NCI-H522 lung, 37.8 µM; in the assay with KM12 colon, 38.2 µM. The TGI in the assay on M14 melanoma was 31.6 µM; with SF-539 CNS it was 46.1 µM; with A549 NSCLC it was 36.2 µM; in the assay on SNB-19 CNS, > 100 µM.
In the case of `N#Cc1c(NN)n(C2OC(CO)C(O)C2O)c2ncnc(N)c12` (stereo unspecified), the GI50 is 0.461 µM with SK-MEL-5 melanoma; 0.344 µM with SF-295 CNS; 0.311 µM with OVCAR-5 ovarian; 0.247 µM with TK-10 renal; 0.198 µM with NCI-H522 lung; 0.0874 µM with KM12 colon. In addition, the GI50 in the assay on M14 melanoma was 0.0532 µM; with SF-539 CNS it was 0.337 µM; in the assay with A549 NSCLC, 0.0353 µM; in the assay on SNB-19 CNS, 0.395 µM. Besides, the TGI amounted to 3.05 µM in the assay with SK-MEL-5 melanoma; 47.8 µM in the assay on SF-295 CNS; 14.4 µM in the assay with OVCAR-5 ovarian; 7.93 µM in the assay with TK-10 renal; 0.469 µM with NCI-H522 lung; 1.72 µM in the assay on KM12 colon. In addition, the TGI with M14 melanoma was 0.303 µM; in the assay with SF-539 CNS it was 1.48 µM; in the assay on A549 NSCLC it was > 100 µM; with SNB-19 CNS, > 29.5 µM.

Values taken from PubChem BioAssay (NCI).
